Data taken from US10711011B2, “Substituted oxazolidines as anti-bacterial agents” (BUGWORKS RESEARCH, INC., priority 2016, dated 2020).
Values after ≈ are worked out from the molar mass of the structure shown.

How the values were obtained:
[1] = test system: S. aureus ATCC 29213; test: Minimum Inhibitory Concentration (MIC) in LB media; assay type: cell-based, Staphylococcus aureus; conditions: for MIC: Staphylococcus aureus, ATCC29213, LB Media
Description: (§1) The compounds of Formula I are of interest due to their potent antibacterial effects. The ability of the invention compounds disclosed herein to achieve an antibacterial effect may be evaluated with regard to their ability to inhibit the growth of bacterial species like Escherichia coli ATCC 25922, Staphylococcus aureus ATCC 29213, Klebsiella pneumoniae ATCC 13883, Acinetobacter baumannii ATCC 19606, Pseudomonas aurigenosa ATCC 27853, Enterococcus faecalis ATCC 29212 and Enterococcus faecalis ATCC 29212 using an assay based on the following Minimum Inhibitory Concentration (MIC) protocol:
(§2) The test bacteria are grown in Luria Bertani Broth (HIMEDIA M1245), 25 grams of the powder is dissolved in 1000 ml distilled water and sterilized by autoclaving at 15 lbs pressure (121° C.) for 20 minutes. The medium sterility is checked by incubating at 37° C. for a period of 48 h.
(§3) Bacterial cultures that are stored as glycerol stocks at −80° C. are sub cultured on LB agar plates to obtain isolated colonies. A single colony of each strain is cultured in LB broth. The cultures are incubated at 37° C., 200 rpm till they reach an optical density (OD at 600 nm) of 0.8 to 1. […] Test compounds are dissolved in dimethyl sulfoxide (DMSO) to a stock concentration of 4 mg/ml. A twofold dilution series of this DMSO stock is prepared in a 96 well V bottom microtitre plate from rows A to H. A 3 μL volume of these dilutions are transferred to a 96-well flat bottom microtitre assay plate. Controls to monitor the effects of DMSO and media sterility are included. Each well is inoculated with 150 μL of the above diluted culture. The plates are incubated at 37° C. overnight in a humidified incubator. The following morning, the plates are read using a Spectrophotometer at 600 nm wavelength. […] The antibacterial activity (MIC) determined against representative Gram positive (S. aureus, E. faecalis) and Gram negative (E. coli, P. aurigenosa, K. pneumoniae and A. baumannii) pathogen were reported Table 1.

[2] = molecular target: E. coli DNA gyrase (Escherichia coli, UniProt P0AES4+P0AES6); test: biochemical; conditions: supercoiling assay
Chain of E. coli DNA gyrase (P0AES4 whole entry, one chain of several): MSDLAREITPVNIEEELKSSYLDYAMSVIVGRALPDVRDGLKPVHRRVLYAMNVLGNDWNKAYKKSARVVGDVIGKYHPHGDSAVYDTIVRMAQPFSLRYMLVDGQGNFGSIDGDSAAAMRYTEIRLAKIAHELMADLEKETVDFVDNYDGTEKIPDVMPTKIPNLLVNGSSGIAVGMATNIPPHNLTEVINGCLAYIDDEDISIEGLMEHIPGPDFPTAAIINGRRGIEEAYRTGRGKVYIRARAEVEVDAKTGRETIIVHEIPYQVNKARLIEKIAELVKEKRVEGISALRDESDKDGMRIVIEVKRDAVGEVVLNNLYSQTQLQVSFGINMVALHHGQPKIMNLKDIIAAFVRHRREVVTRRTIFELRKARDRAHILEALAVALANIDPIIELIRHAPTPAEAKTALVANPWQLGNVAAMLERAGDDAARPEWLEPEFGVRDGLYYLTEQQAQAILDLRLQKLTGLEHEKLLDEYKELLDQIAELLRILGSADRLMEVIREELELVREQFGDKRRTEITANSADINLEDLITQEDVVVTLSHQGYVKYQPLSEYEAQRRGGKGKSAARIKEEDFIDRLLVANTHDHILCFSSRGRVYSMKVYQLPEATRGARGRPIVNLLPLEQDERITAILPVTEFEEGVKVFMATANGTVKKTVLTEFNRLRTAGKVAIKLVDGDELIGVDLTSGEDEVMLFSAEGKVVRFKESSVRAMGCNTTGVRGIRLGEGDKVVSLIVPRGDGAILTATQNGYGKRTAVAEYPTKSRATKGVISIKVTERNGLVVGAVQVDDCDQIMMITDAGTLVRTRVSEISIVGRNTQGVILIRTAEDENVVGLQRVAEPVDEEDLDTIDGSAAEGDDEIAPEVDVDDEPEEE

[3] = test system: E. faecalis ATCC 29212; test: Minimum Inhibitory Concentration (MIC) in LB media; assay type: cell-based, Enterococcus faecalis; conditions: for MIC: Enterococcus faecalis, ATCC29212
Description: as §1, §2, §3

[4] = test system: A. baumannii ATCC 19606; test: Minimum Inhibitory Concentration (MIC) in LB media; assay type: cell-based, Acinetobacter baumannii; conditions: for MIC: Acinetobacter baumannii, ATCC19606, LB Media
Description: as §1, §2, §3

[5] = test system: K. pneumoniae (Kpn) clinical strains; test: MIC50 and MIC90 studies using clinical strains (CLSI guidelines); assay type: cell-based
[6] = test system: K. pneumoniae ATCC 13883; test: Minimum Inhibitory Concentration (MIC) in LB media; assay type: cell-based, Klebsiella pneumoniae; conditions: for MIC: Klebsiella pneumoniae, ATCC13883, LB Media
Description: as §1, §2, §3

[7] = test system: P. aurigenosa (Pae) clinical strains; test: MIC50 and MIC90 studies using clinical strains (CLSI guidelines); assay type: cell-based
[8] = test system: E. coli ATCC 25922; test: Minimum Inhibitory Concentration (MIC) in LB media; assay type: cell-based, Escherichia coli; conditions: for MIC: Escherichia coli, ATCC25922, LB Media
Description: as §1, §2, §3

[9] = test system: A. baumannii (Aba) clinical strains; test: MIC50 and MIC90 studies using clinical strains (CLSI guidelines); assay type: cell-based
[10] = molecular target: E. coli topoisomerase IV (Escherichia coli, UniProt P0AFI2+P20083); test: biochemical; conditions: decatenation assay; read-out: E. coli Topo IV IC50
Chain of E. coli topoisomerase IV (P0AFI2 whole entry): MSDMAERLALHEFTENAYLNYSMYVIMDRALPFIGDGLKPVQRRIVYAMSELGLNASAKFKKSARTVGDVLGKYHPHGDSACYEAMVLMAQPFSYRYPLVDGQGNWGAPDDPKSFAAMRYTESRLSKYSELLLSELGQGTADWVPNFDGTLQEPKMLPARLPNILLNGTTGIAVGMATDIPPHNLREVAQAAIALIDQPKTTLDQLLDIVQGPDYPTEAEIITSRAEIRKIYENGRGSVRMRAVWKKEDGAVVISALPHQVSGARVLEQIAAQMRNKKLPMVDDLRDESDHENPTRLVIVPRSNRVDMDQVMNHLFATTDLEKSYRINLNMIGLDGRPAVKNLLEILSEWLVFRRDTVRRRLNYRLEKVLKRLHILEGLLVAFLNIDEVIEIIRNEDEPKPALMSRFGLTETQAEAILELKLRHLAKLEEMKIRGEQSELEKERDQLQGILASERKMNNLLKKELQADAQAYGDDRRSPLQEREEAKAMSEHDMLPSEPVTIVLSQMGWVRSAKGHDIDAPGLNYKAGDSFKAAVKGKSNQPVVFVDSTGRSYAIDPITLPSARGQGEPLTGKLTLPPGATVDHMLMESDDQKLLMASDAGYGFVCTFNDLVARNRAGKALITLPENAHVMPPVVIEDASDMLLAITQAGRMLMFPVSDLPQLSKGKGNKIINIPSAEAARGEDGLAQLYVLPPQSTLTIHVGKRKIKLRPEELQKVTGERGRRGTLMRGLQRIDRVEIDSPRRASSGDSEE
Chain of E. coli topoisomerase IV (P20083 whole entry): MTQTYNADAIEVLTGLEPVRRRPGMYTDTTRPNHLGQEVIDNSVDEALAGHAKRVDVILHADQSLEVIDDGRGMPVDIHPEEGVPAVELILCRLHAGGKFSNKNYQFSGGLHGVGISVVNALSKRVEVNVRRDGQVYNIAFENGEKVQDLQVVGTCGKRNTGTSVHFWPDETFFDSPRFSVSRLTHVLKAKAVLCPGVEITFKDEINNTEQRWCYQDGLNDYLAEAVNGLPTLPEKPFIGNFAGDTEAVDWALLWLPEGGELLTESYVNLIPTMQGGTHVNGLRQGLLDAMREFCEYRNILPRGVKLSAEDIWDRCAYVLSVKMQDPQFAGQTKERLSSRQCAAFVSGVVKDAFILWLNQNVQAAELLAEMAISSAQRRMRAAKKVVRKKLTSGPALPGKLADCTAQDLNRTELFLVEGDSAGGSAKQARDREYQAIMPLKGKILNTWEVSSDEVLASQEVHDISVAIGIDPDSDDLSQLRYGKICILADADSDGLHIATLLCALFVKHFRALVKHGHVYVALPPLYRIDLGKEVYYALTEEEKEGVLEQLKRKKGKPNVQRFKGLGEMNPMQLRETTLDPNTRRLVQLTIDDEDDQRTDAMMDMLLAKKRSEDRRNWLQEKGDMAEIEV

[11] = test system: E. coli clinical strains; test: MIC50 and MIC90 studies using clinical strains (CLSI guidelines); assay type: cell-based
[12] = test system: P. aurigenosa ATCC 27853; test: Minimum Inhibitory Concentration (MIC) in LB media; assay type: cell-based, Pseudomonas aurigenosa; conditions: for MIC: Pseudomonas, ATCC27853, LB Media
Description: as §1, §2, §3

[13] = Klebsiella pneumoniae, Kpn, 211 strains
[14] = Acinetobacter baumannii, Aba, 169 strains
[15] = Escherichia coli, E. coli, 201 strains

CN1C(=O)Cc2ccc(F)c(CCNCCC3CN(c4ccc5c(n4)NC(=O)CO5)C(=O)O3)c21 (single isomer, unassigned) [Example 14, 6-(5-(2-((2-(6-fluoro-1-methyl-2-oxoindolin-7-yl)ethyl)amino)ethyl)-2-oxooxazolidin-3-yl)-2H-pyrido[3,2-b][1,4]oxazin-3(4H)-one]
Minimum Inhibitory Concentration S. aureus ATCC 29213 ([1]; LB Media): 0.03 µg/mL | IC50 [2]: 100 nM | Minimum Inhibitory Concentration E. faecalis ATCC 29212 [3]: 0.25 µg/mL | Minimum Inhibitory Concentration A. baumannii ATCC 19606 ([4]; LB Media): 0.03 µg/mL | MIC50 [5, 13]: 1 µg/mL (≈ 2.13 µM) | MIC90 [5, 13]: 4 µg/mL (≈ 8.52 µM) | MIC ATCC13883 ([5]; Kpn reference strain ATCC13883, unit inferred): 0.25 µg/mL (≈ 0.533 µM) | Minimum (MIC) ([5]; Kpn, 211 strains, unit inferred): 0.06 µg/mL | Minimum Inhibitory Concentration K. pneumoniae ATCC 13883 ([6]; LB Media): 0.125 µg/mL | MIC ATCC27853 ([7]; Pae reference strain ATCC27853, unit inferred): 0.5 µg/mL (≈ 1.07 µM) | MIC50 ([7]; Pae, 215 strains): 0.5 µg/mL (≈ 1.07 µM) | MIC90 ([7]; Pae, 215 strains): 1 µg/mL (≈ 2.13 µM) | Minimum (MIC) ([7]; Pae, 215 strains, unit not given, in µg/mL): 0.03125 | Minimum Inhibitory Concentration E. coli ATCC 25922 ([8]; LB Media): 0.03 µg/mL | MIC ATCC19606 ([9]; Aba reference strain ATCC19606, unit inferred): 0.06 µg/mL (≈ 0.128 µM) | Minimum (MIC) ([9]; Aba, 169 strains, unit not given, in µg/mL): 0.015 | MIC50 [9, 14]: 0.25 µg/mL (≈ 0.533 µM) | MIC90 [9, 14]: 0.5 µg/mL (≈ 1.07 µM) | IC50 [10]: 36 nM | MIC ATCC25922 ([11]; E. coli reference strain ATCC25922, no unit in this row (MIC50/MIC90 rows: μg/ml)): 0.06 µg/mL (≈ 0.128 µM) | Minimum (MIC) ([11]; E. coli, 201 strains, unit inferred): 0.03 µg/mL | MIC50 [11, 15]: 0.25 µg/mL (≈ 0.533 µM) | MIC90 [11, 15]: 0.5 µg/mL (≈ 1.07 µM) | Minimum Inhibitory Concentration P. aurigenosa ATCC 27853 ([12]; LB Media): 0.5 µg/mL

CCN1C(=O)Cc2ccc(F)c(CNCCCC3CN(c4ccc5c(n4)NC(=O)CO5)C(=O)O3)c21 (stereo not shown) [Example 8, 6-(5-(3-(((1-Ethyl-6-fluoro-2-oxoindolin-7-yl)methyl)amino)propyl)-2-oxooxazolidin-3-yl)-2H-pyrido[3,2-b][1,4]oxazin-3(4H)-one]
MIC [1]: 0.07 µg/mL (≈ 0.145 µM) | IC50 [2]: 54 nM | MIC [3]: 0.15 µg/mL (≈ 0.31 µM) | MIC [4]: 0.15 µg/mL (≈ 0.31 µM) | MIC [6]: 0.3 µg/mL (≈ 0.62 µM) | MIC [8]: 0.15 µg/mL (≈ 0.31 µM) | IC50 [10]: 362 nM | MIC [12]: 2.5 µg/mL (≈ 5.17 µM)

CN1C(=O)Cc2ccc(F)c(CNCCCC3CN(c4ccc5c(c4)NC(=O)CO5)C(=O)O3)c21 (stereo not shown) [Example 12, 6-(5-(3-(((6-fluoro-1-methyl-2-oxoindolin-7-yl)methyl)amino)propyl)-2-oxooxazolidin-3-yl)-2H-benzo[b][1,4]oxazin-3(4H)-one]
MIC [1]: 0.25 µg/mL (≈ 0.534 µM) | IC50 [2]: 89 nM | MIC [3]: 0.5 µg/mL (≈ 1.07 µM) | MIC [4]: 0.13 µg/mL (≈ 0.277 µM) | MIC [6]: 0.5 µg/mL (≈ 1.07 µM) | MIC [8]: 0.25 µg/mL (≈ 0.534 µM) | IC50 [10]: 600 nM | MIC [12]: 2 µg/mL (≈ 4.27 µM)
